ChEMBL document CHEMBL5532755, “Unveiling the potent activity of a synthetic ion transporter against multidrug-resistant Gram-positive bacteria and biofilms” (RSC Med Chem, 2024)
Converted amounts (≈) assume the structure as drawn.

Key:
Type in all cases: functional
[1] = test system: Staphylococcus aureus; assay: Induction of resistance development in methicillin-resistant Staphylococcus aureus ATCC 33591 assessed as fold increase in MIC measured after 3 days by broth dilution method relative to control; settings: time 3.0 day
[2] = test system: Staphylococcus aureus; assay: Induction of resistance development in methicillin-resistant Staphylococcus aureus ATCC 33591 assessed as fold increase in MIC measured after 5 days by broth dilution method relative to control; settings: time 5.0 day
[3] = test system: Staphylococcus aureus; assay: Induction of resistance development in methicillin-resistant Staphylococcus aureus ATCC 33591 assessed as fold increase in MIC measured after 10 days by broth dilution method relative to control; settings: time 10.0 day
[4] = test system: Escherichia coli; assay: Antibacterial activity against Escherichia coli MTCC 443 incubated for 16 to 18 hrs by broth dilution method; settings: time 16-18 hrs
[5] = test system: Enterococcus faecium; assay: Antibacterial activity against vancomycin-resistant Enterococcus faecium 909 incubated for 16 to 18 hrs by broth dilution method; settings: time 16-18 hrs
[6] = test system: Enterococcus faecium; assay: Antibacterial activity against vancomycin-resistant Enterococcus faecium 903 incubated for 16 to 18 hrs by broth dilution method; settings: time 16-18 hrs
[7] = test system: Staphylococcus epidermidis; assay: Antibacterial activity against Staphylococcus epidermidis MTCC 3615 incubated for 16 to 18 hrs by broth dilution method; settings: time 16-18 hrs
[8] = test system: Staphylococcus aureus; assay: Antibacterial activity against vancomycin-resistant Staphylococcus aureus 1 incubated for 16 to 18 hrs by broth dilution method; settings: time 16-18 hrs
[9] = test system: Enterococcus faecium; assay: Antibacterial activity against Enterococcus faecium ATCC 19634 incubated for 16 to 18 hrs by broth dilution method; settings: time 16-18 hrs
[10] = test system: Staphylococcus aureus; assay: Antibacterial activity against vancomycin-resistant Staphylococcus aureus 4 incubated for 16 to 18 hrs by broth dilution method; settings: time 16-18 hrs

## CC(=O)O[C@H]1C[C@@]2(C)[C@@H](C[C@@H](O)[C@H]3[C@@]4(C)CC[C@@H](O)[C@@H](C)[C@@H]4CC[C@@]32C)/C1=C(\CCC=C(C)C)C(=O)O
[1]
  fold change (FC): 32
[2]
  fold change (FC): 128
[3]
  fold change (FC): 4000

## COLISTIN
[4]
  MIC: 1 µg/mL

## CC(=O)NC[C@H]1CN(c2ccc(N3CCOCC3)c(F)c2)C(=O)O1 [LINEZOLID]
[5]
  MIC: 2 µg/mL (≈ 5.93 µM)
[6]
  MIC: 32 µg/mL (≈ 94.9 µM)
[7]
  MIC: 2 µg/mL (≈ 5.93 µM)
[8]
  MIC: 1 µg/mL (≈ 2.96 µM)
[9]
  MIC: 4 µg/mL (≈ 11.9 µM)
[10]
  MIC: 1 µg/mL (≈ 2.96 µM)
